# Measurements published in patent publication US20030129168A1, “Expression of proteins for treating asthma via ligand mediated activation of their encoding genes” (ARIAD Gene Therapeutics, Inc., priority 1996, published 2003).
# Experiments:
# [1] = system: myristoylated chimeric CD3/FKBP12 (MZF3E) receptor; experiment: FK1012 activation of myristoylated chimeric CD3/FKBP12 (MZF3E) receptor, NFAT SEAP reporter in Jurkat T cells; type: cell-based, human; details: addition of 1 ng/ml FK506
# Text: In an illustrative case, this was accomplished by creating an intracellular receptor comprised of a small fragment of Src sufficient for posttranslational myristoylation (M), the cytoplasmic tail of zeta (Z; a component of the […] was also used), three consecutive FKBP12s (F3) and a flu epitope tag (E). […] The promoter of the SEAP reporter gene was constructed to be transcriptionally activated by nuclear factor of activated T cells (NFAT), which is assembled in the nucleus following TCR-signaling.
# Specifically, 5 μg of the eukaryotic expression vector, pBJ5, containing a myristoylated chimeric receptor was co-transfected with 4 μg NFAT-SX. MZE, MZF1E, MZF2E and MZF3E contain 0, 1, 2, or 3 copies of FKBP12, respectively, downstream of a myristoylated CD3 cytoplasmic domain (see FIG. 2 of PCT/US94/01617). As a control, 5 μg of pBJ5 was used in a parallel transfection. After 24 hours, aliquots of each transfection containing approximately 10^5 cells were incubated with log dilutions of the drug, FK1012B, as indicated. As a positive control and to control for transfection efficiency, ionomycin (1 μm) and PMA (25 ng/ml) were added to aliquots from each transfection. After an additional 12 hour incubation, the supernatants were assayed for alkaline phosphatase activity and these activities were expressed relative to that of the positive control samples. […] Compare FIGS. 7 and 8 of PCT/US94/01617.
# [2] = system: chimeric FKBP12/CD3 (1FK3) receptor; experiment: FK1012A activation of chimeric FKBP12/CD3 (1FK3) receptor, NFAT-SX SEAP reporter; type: cell-based; details: addition of 2 ng/ml FK506
# Procedure: 5 μg of the eukaryotic expression vector, pBJ5, (based on pCDL-SR with a polylinker inserted between the 16S splice site and the poly A site), containing the chimeric receptor (1FK3), was co-transfected with 4 μg of the NFAT-inducible secreted alkaline phosphatase reporter plasmid, NFAT-SX. As a control, 5 μg of pBJ5 was used, instead of 1FK3/pBJ5, in a parallel transfection. After 24 hours, aliquots of each transfection containing approximately 10^5 cells were incubated with log dilutions of the drug FK1012A, as indicated. As a positive control and to control for transfection efficiency, ionomycin (1 μM) and PMA (25 ng/ml) were added to aliquots from each transfection. After an additional 14 hour incubation, the supernatants were assayed for alkaline phosphatase activity and these activities were expressed relative to that of the positive control samples. […] Each data point obtained was the average of two samples and the experiment was performed several times with similar results.
# NFAT = experiment: SEAP reporter activation by cross-linking chimeric receptor TAC/TAC/Z (TTZ) in TAg Jurkat cells; type: cell-based, human; details: addition of 1 ng/ml FK506; TTZ-transfected TAg Jurkat cells on bound anti-TAC mAb
# Text: The plasmid pSXNeo/IL2 (IL2-SX) (FIG. 1 of PCT/US94/01617), which contains the placental secreted alkaline phosphatase gene under the control of human IL-2 promoter (−325 to +47; MCB(86) 6, 3042), and related plasmid variants (i.e. NFAT-SX, NFB-SX, OAP/Octl-SX, and AP-1-SX) in which the reporter gene is under the transcriptional control of the minimal IL-2 promoter (−325 to −294 and −72 to +47) combined with synthetic oligomers containing various promoter elements (i.e. NFAT, NKB, OAP/Oct-1, and AP1, respectively), were made by three piece ligations of 1) pPL/SEAP (Berger, et al., Gene (1988) 66,1) cut with Sspl and HindIII; 2) pSV2/Neo (Southern and Berg, J. Mol. Appl. Genet. (1982) 1, 332) cut with NdeI, blunted with Kilenow, then cut with PvuI; and 3) various promoter-containing plasmids (i.e. NFAT-CD8, B-CD8, cxl2lacZ-Oct-1, AP1-LUCIF3H, or cx151L2) (described below) cut with PvuI and HindIII. NFAT-CD8 contains 3 copies of the NFAT-binding site (−286 to −257; Genes and Dev. (1990) 4, 1823) and cx121acZ-Oct contains 4 copies of the OAP/Oct-1/(ARRE-1) binding site (MCB, (1988) 8, 1715) from the human IL-2 enhancer; B-CD8 contains 3 copies of the NFB binding site from the murine light chain (EMBO (1990) 9,4425) and AP1-LUCIF3H contains 5 copies of the AP-1 site (5′-[…]-3′) from the metallothionen promoter. […]
smiles,measurement,setting,value
C=CC[C@@H]1/C=C(\C)C[C@H](C)C[C@H](OC)[C@H]2O[C@@](O)(C(=O)C(=O)N3CCCC[C@H]3C(=O)O[C@H](/C(C)=C/[C@@H]3CC[C@@H](O)[C@H](OC)C3)[C@H](C)[C@@H](O)CC1=O)[C@H](C)C[C@@H]2OC [FK506],alkaline phosphatase activity (FK1012B stimulations),[1],dropped all stimulations to near background levels
same,alkaline phosphatase activity (FK1012A stimulations),[2],dropped all stimulations to background levels
same,alkaline phosphatase activity due to NFAT,NFAT,dropped all activity due to NFAT to background levels
